Where a name gives a salt, the structure may show the parent alone.

Data set [1] is described as follows: Solid-form physical stability at ambient conditions / humidity. It is filed as physicochemical.
Data set [2] is described as follows: Slurry of the tromethamine salt in aqueous media (disproportionation). It counts as physicochemical.

For `O=C(O)c1ccnc(N2CC(O)(c3ccc(OCc4c(-c5c(Cl)cccc5Cl)noc4C4CC4)cc3Cl)C2)c1`, the “time to full conversion to Formula I tromethamine salt hydrate I” value in data set [1] (ambient conditions, depending on % RH) was not above 1 h. Take `O=C(O)c1ccnc(N2CC(O)(c3ccc(OCc4c(-c5c(Cl)cccc5Cl)noc4C4CC4)cc3Cl)C2)c1` [Formula I tromethamine salt Form II]: in data set [1] (about >20% RH), the “moisture absorption and form conversion” value was “rapidly absorbs moisture at about >20% RH and converts to Formula I tromethamine salt hydrate II”. For the molecule `O=C(O)c1ccnc(N2CC(O)(c3ccc(OCc4c(-c5c(Cl)cccc5Cl)noc4C4CC4)cc3Cl)C2)c1` [Formula I tromethamine salt MTBE solvate], the “solid form conversion at ambient conditions” value in data set [1] (ambient conditions) is given as “converted to disordered material at ambient conditions”. On to `O=C(O)c1ccnc(N2CC(O)(c3ccc(OCc4c(-c5c(Cl)cccc5Cl)noc4C4CC4)cc3Cl)C2)c1` [Formula I tromethamine salt ethanol solvate], for which the “solid form conversion at ambient conditions” value in data set [1] (ambient conditions) was “converted to Formula I tromethamine salt hydrate I at ambient conditions”. Still for that read-out and setting: in the case of `O=C(O)c1ccnc(N2CC(O)(c3ccc(OCc4c(-c5c(Cl)cccc5Cl)noc4C4CC4)cc3Cl)C2)c1` [Formula I tromethamine salt methanol solvate I] it was “loses methanol very rapidly at ambient conditions and converts to tromethamine salt methanol solvate III”.

For the molecule `O=C(O)c1ccnc(N2CC(O)(c3ccc(OCc4c(-c5c(Cl)cccc5Cl)noc4C4CC4)cc3Cl)C2)c1` [Formula I tromethamine salt], the “salt stability (disproportionation to zwitterion Form II)” value in data set [2] (MeOH/water (0.4-0.6 water activity)) is recorded as “disproportionation”. The “salt stability in slurry (disproportionation to zwitterion hydrate)” value in data set [2] (slurry in water) is on record as “disproportionation of the salt”.

The values are drawn from patent US12102625B2, “Solid forms of FXR agonists” (Gilead Sciences, Inc., priority 2019, dated 2024).
